One test addresses T1, hCB2-R (Homo sapiens, UniProt P34972).
T1 construct: expressed in transfected cells; membranes
Description: CB2 ligand binding assay ([3H]-CP55940 displacement, CHO-K1 membranes). The settings on record: 0.3-0.5 nM [3H]-CP55940, CB2 membranes, 2 h at 30° C.; read-out: Binding constants (Ki) to hCB2-R. An excerpt: (§1) The biological assays used were essentially set up as described in Munro, S., Thomas, K. L., Abu-Shaar, M. in “Molecular characterisation of a peripheral receptor for cannabinoids” Nature 365:61-65 (1993) and Kim, S. H. and Chung, J. M. in “An experimental model for peripheral neuropathy produced by segmental spinal nerve ligation in the rat” Pain 50:355-363 (1992).
Monoclonal HEK cell lines with stable expression of the human CB1 receptor and CHO-K1 cell lines with stable expression of hCB2-R were established. The CB binding assays were performed with membranes prepared from these cell lines. The CB2 ligand binding mixture contains 0.3-0.5 nM [^3H]-CP55940, 7 μg of CB2 membranes and the test compounds in a concentration range of from 1.0×10^−4 to 1.0×10^−12 M. The assay buffer comprises 50 mM Tris-HCl (pH 7.4), 5 MM MgCl2, 2.5 mM EDTA and 5 mg/ml fatty acid-free bovine serum albumin. The binding mixtures are incubated for 2 h at 30° C. and terminated by rapid filtration (Brandel 96 well cell harvester) over 934AH filters (Whatman) followed by 6 washes with ice-cold binding buffer. The filters are dried and [^3H]-CP55940 bound radioactivity is determined by liquid scintillation counting. Non-specific binding is determined in the presence of 10 μM CP55940. The binding data is analysed with the program GraphPad Prism (provided by GraphPad Software, San Diego, Calif., USA).

The test system of test [1] is rats. Briefly: L5/L6 nerve ligation injury, thermal hyperalgesia. Type of test: in vivo. The settings on record: rat.
Text: as §1
(§2) Inflammatory (Formalin flinch test) and chronic pain (L5/L6 nerve ligation injury) models were used as assays in both rats and mice.
(§3) Nerve ligation injury was performed according to the method described previously (Kim and Chung). This methodology produces signs of tactile allodynia and thermal hyperalgesia. Rats were anesthetized with halothane and the L5 and L6 spinal nerves were exposed, carefully isolated, and tightly ligated with 4-0 silk suture distal to the dorsal root ganglia (DRG). After ensuring homeostatic stability the wounds were sutured, and the animals were allowed to recover in individual cages. Sham-operated rats were prepared in an identical fashion except that the L5 and L6 spinal nerves were not ligated. Compound 17 was tested in rats after L5/L6 nerve ligation. Compound administration was directly into the hind paw (i.paw) or into the peritoneal cavity (i.p.).

In test [2] the test system is rats. Description: L5/L6 nerve ligation injury, tactile allodynia (von Frey). Format: in vivo. The settings on record: rat.
Text: as §1, §2
as §3, with “Compound administration was directly into the hind paw (i.paw) or into the peritoneal cavity (i.p.).” left out
In the evaluation of the tactile allodynia, the paw withdrawal threshold was determined in response to probing with calibrated von Frey filaments. […] The 50% paw withdrawal threshold was determined by the nonparametric method. […]

Test [3] concerns rats. Description: Formalin flinch test (inflammatory pain). The settings on record: rat; for A50 Formalin Phase II: inflammatory phase (10-60 min); for A50 Formalin Phase I: tonic phase (first 10 min). Format: in vivo.
Text: as §1, §2
Animals are habituated to the their local environment for about 30 min prior to testing. The formalin test is carried out in a 30×30×30 cm chamber with the front and bottom of the chambers made of clear plexiglass. Mirrors are placed at a 45° angle under the chambers in order to have an un-obstructive view of the paws. Animals are restrained manually and 2% formalin (aq) is injected subcutaneously into the planar surface of the left paw with a 30 gauge needle. The numbers of paw flinches are then recorded in 5 min intervals from the time of injection for a 60 min period. Elevations of the paw, licking and biting of the injected paw were counted as “flinches”. The tonic or “first phase” of the nociceptive response peaked at 5 min after formalin injection and the inflammatory or “second phase” peaked at 30 min after formalin injection. The number of flinches in the first 10 min were representative of the tonic phase and the number of flinches from 10 min until 60 min were representative of the inflammatory phase. Antinociception for both phase I and phase II was calculated as follows: % antinociception=100×(# of flinches in control animal−# of flinches in drug treated animal)/(# of flinches in control animal)
Potency (A50) is calculated from the full dose response curve for both phase I and phase II.

Molecules are shown by their SMILES. Where only a bound is given, the exact number is not on record here.

T1 sequence (P34972 whole entry): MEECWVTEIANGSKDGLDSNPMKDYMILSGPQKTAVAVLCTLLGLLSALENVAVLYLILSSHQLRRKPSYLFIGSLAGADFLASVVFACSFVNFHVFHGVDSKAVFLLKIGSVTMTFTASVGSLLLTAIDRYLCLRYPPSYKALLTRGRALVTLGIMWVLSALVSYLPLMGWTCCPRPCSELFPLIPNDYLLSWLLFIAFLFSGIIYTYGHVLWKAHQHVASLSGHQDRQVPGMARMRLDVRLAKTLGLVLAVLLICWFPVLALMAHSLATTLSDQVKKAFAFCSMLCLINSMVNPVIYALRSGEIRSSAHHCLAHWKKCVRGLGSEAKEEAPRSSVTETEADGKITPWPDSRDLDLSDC

Take `NC(=O)[C@@H]1CCCC[C@H]1N(CCCC1CCCCC1)C(=O)Nc1ccccc1` (relative stereo) [Compound 7, trans-2-[1-(3-cyclohexylpropyl)-3-phenylureido]cyclo-hexanecarboxamide]: the Ki at hCB2-R was 1500 nM.

For `C[C@@H](C(=O)N(CCCC(N)=O)CCCC1CCCCC1)c1ccccc1` [Compound 1, (R)-4-[(3-cyclohexylpropyl)-(2-phenylpropionyl)amino]-butyramide], the Ki at hCB2-R was 2900 nM.

For `NC(=O)CCCN(CCCCCCc1ccccc1)C(=O)Nc1ccccc1` [Compound 2, 4-[3-phenyl-1-(6-phenylhexyl)ureido]butyramide], on hCB2-R, the Ki is 450 nM.

Regarding `CCCCc1ccc(CN(CCCC(N)=O)C(=O)Nc2ccccc2)cc1` [Compound 3, 4-[1-(4-butylbenzyl)-3-phenylureido]butyramide], the Ki at hCB2-R amounted to 120 nM.

With `CC(C)c1ccc(CN(CCCC(N)=O)C(=O)Nc2ccccc2)cc1` [Compound 4, 4-[1-(4-isopropylbenzyl)-3-phenylureido]butyramide], the Ki at hCB2-R is 780 nM.

With `CC(C)CCCN(CCCC(N)=O)C(=O)Nc1ccccc1` [Compound 5, 4-[1-(4-methylpentyl)-3-phenylureido]butyramide], the Ki at hCB2-R is 1100 nM.

Regarding `O=C(CCCN(CCCC1CCCCC1)C(=O)Nc1ccccc1)NCc1ccc(Cl)cc1` [Compound 6, N-(4-chlorobenzyl)-4-[1-(3-cyclohexylpropyl)-3-phenyl-ureido]butyramide], the Ki at hCB2-R is 2200 nM.

`NC(=O)CCCN(CCCC1CCCCC1)C(=O)Cc1ccc2ccccc2c1` [Compound 8, 4-[(3-cyclohexylpropyl)-(2-naphthalen-2-yl-acetyl)amino]-butyramide]: the Ki at hCB2-R came to 2700 nM.

As for `NC(=O)CCCCCCCN(CCCC1CCCCC1)C(=O)Cc1ccc2ccccc2c1` [Compound 9, 8-[(3-cyclohexylpropyl)-(2-naphthalen-2-yl-acetyl)amino]-octanamide], the Ki at hCB2-R is 15000 nM.

As for `NC(=O)CCCN(CCCC1CCCCC1)C(=O)Nc1ccc2ccccc2c1` [Compound 10, 4-[1-(3-cyclohexylpropyl)-3-naphthalen-2-yl-ureido]-butyramide], the Ki at hCB2-R was 1000 nM.

As to `NC(=O)CCCN(CCc1ccc2ccccc2c1)C(=O)Nc1ccccc1` [Compound 11, 4-[1-(2-naphthalen-2-yl-ethyl)-3-phenylureido]butyr-amide], on hCB2-R, the Ki stood at 770 nM.

Take `NC(=O)CCCN(CCC1CCCCC1)C(=O)Nc1ccccc1` [Compound 12, 4-[1-(2-cyclohexylethyl)-3-phenylureido]butyramide]: the Ki on hCB2-R was 410 nM.

As for `NC(=O)CCCN(CCc1ccccc1)C(=O)Nc1ccccc1` [Compound 13, 4-(1-phenethyl-3-phenylureido)butyramide], the Ki at hCB2-R was 450 nM.

Regarding `NC(=O)CCCN(Cc1ccccc1)C(=O)Nc1ccccc1` [Compound 14, 4-(1-benzyl-3-phenylureido)butyramide], the Ki at hCB2-R came out at 840 nM.

In the case of `NC(=O)CCCN(CCCC1CCCC1)C(=O)Nc1ccccc1` [Compound 15, 4-[1-(3-cyclopentylpropyl)-3-phenylureido]butyr-amide], the Ki at hCB2-R worked out at 210 nM.

With `NC(=O)CCCN(CCCCCc1ccccc1)C(=O)Nc1ccccc1` [Compound 16, 4-[3-phenyl-1-(5-phenylpentyl)ureido]butyramide], at hCB2-R, the Ki stood at 130 nM.

Regarding `NC(=O)CCCN(CCCC1CCCCC1)C(=O)Nc1ccccc1` [Compound 17, 4-[1-(3-cyclohexylpropyl)-3-phenylureido]butyramide], the “antihyperalgesic response to the thermal testing” value in the test with rats [1] (L5/L6 spinal nerve ligation, 30 μg (in 50 μl) into the paw) is reported as 100%. Also, the “A50 L5/L6 anti-hyperalgesia” value in the test with rats [1] (i. paw) is recorded as below 30 mg/paw. Further, on hCB2-R, the Ki amounted to 110 nM. The compound also came in with an antiallodynic effect with rats [2] (L5/L6 nerve ligation, 100 μg (in 50 μl) into the paw) of 90%. In the test with rats [2] (i. paw), the “A50 L5/L6 anti-allodynia” value was below 30 mg/paw. For the same compound, the “A50 Formalin Phase II” value in the test with rats [3] (i. paw) came out at 28 mg/paw; with rats [3] (i.p.), 0.01 mg/kg. Further, the “A50 Formalin Phase I” value in the test on rats [3] (i. paw) is below 10 mg/paw; in the test with rats [3] (i.p.), below 0.01 mg/kg.

Regarding `Cc1c(C(=O)c2cccc3ccccc23)c2cccc3c2n1[C@H](CN1CCOCC1)CO3` [WIN-55, 212-2, reference compound], in the test with rats [3] (i. paw), the “A50 Formalin Phase II” value was determined as 25 mg/paw and the “A50 Formalin Phase I” value was 12 mg/paw.

What is called Ki is the equilibrium dissociation constant of an inhibitor or competing ligand from its target.

Source of the values: US7504538B2, “Amide or thioamide derivatives and their use in the treatment of pain” (Cara Therapeutics, Inc., priority 2003, dated 2009).
